This note sets out measurements from patent US9096593B2, “Compounds and methods for kinase modulation, and indications therefor” (Plexxikon Inc., priority 2009, dated 2015).

One experiment addresses BCR-FMS/BaF3 cells (Homo sapiens, UniProt P07333). The experiment can be described thus: BCR-FMS/BaF3 cell proliferation assay (ATPlite). The class given is cell-based. How it is done: Compounds are assessed in a variety of cell based assays. For example BCR-FMS/BaF3, BCR-KIT/BaF3, M-NFS-60, M-07e, and BAC1.2F5 cell proliferation assays are used to assess inhibitory activity of Fms or Kit and MV-4-11 cell proliferation assay is used to assess inhibitory activity in Flt-3. […] On day 1, cells are counted, then centrifuged in a conical tube for 5 minutes at 1000 rpm. The supernatant is removed and cells are re-suspended as follows: • BCR-FMS/BaF3 and BCR-KIT/BaF3: resuspend in growth media+1 mg/mL G418 (without WEHI/IL-3) to 2×10^5 cells/mL. • M-NFS-60: resuspend in growth media +62 ng/mL murine M-CSF to 5×10^5 cells/mL. • M-07e: resuspend in growth media +200 ng/mL human SCF to 5×10^5 cells/mL. • BAC1.2F5: resuspend in growth media +36 ng/mL murine M-CSF to 1.4×10^5 cells/mL. • MV-4-11: resuspend in growth media +10% FBS to 5×10^5 cells/mL. […] On day 2, compound at a maximum concentration of 5 mM is serially diluted 1:3 for a total of 8 point titration with DMSO as a control. A 1 μL aliquot of each dilution point is added to 249 μL growth media and 50 μL is added to a well containing cells, providing 10 μM compound for the maximum concentration point. The cells are incubated for 3 days at 37° C. in 5% CO2. […] ATPlite is added to each well as follows: • BCR-FMS/BaF3 and BCR-KIT/BaF3: 25 μL per well. • M-NFS-60: 25 μL per well. • M-07c: 40 μL per well. • BAC1.2F5: 50 μL per well. • MV-4-11: 40 μL per well. The cells are incubated at room temperature for 10 minutes, then luminescence is read on Safire reader. The measured luminescence correlates directly with cell number, such that the reading as a function of compound concentration is used to determine the IC50 value.
(In ATP-based viability assays light output follows the ATP content of the culture.)

A further experiment concerns the target BCR-KIT/BaF3 cells (Homo sapiens, UniProt P10721). The experiment can be described thus: BCR-KIT/BaF3 cell proliferation assay (ATPlite). It counts as cell-based. As to conditions: read-out: BCR/BaF3 (IC50 μM) Kit. How it is done:
Compounds are assessed in a variety of cell based assays. For example BCR-FMS/BaF3, BCR-KIT/BaF3, M-NFS-60, M-07e, and BAC1.2F5 cell proliferation assays are used to assess inhibitory activity of Fms or Kit and MV-4-11 cell proliferation assay is used to assess inhibitory activity in Flt-3. Reagent and assay conditions are as follows: • BCR-FMS/BaF3 and BCR-KIT/BaF3 cells: • Maintained in RPMI containing 10% FBS, 1% PenStrep, 1% NEAA, and 1% L-Glutamine, supplemented with 1 mg/mL G418 and 5% WEHI-CM (or recombinant murine IL-3). • Confluent cells are split 1:50 to 1:100 every 3-4 days. • M-NFS-60 cells (ATCC #CRL-1838): • Maintained in RPMI containing 10% FBS, 1% Hepes, 1% NaPyruvate, and 0.45% Glucose, supplemented with 62 ng/mL murine M-CSF. • Confluent cells are split 1:20 every 3-4 days. • M-07e cells (DSMZ #ACC 104): • Maintained in IMDM containing 10% FBS, supplemented with either 200 ng/mL human SCF or […] SCF (R&D Systems 255-SC). • Confluent cells are split 1:5 to 1:10 every 3-4 days. • BAC1.2F5 cells: • Maintained in Alpha-MEM containing 10% Newborn Calf Serum (Invitrogen #26010-074) supplemented with 36 ng/mL murine M-CSF. • Confluent cells are split 1:4 every 3-4 days. • MV-4-11 cells: • Maintained in Iscove's Modified Dulbecco's Medium containing 10% FBS. • Confluent cells are split 1:4 every 3-4 days. On day 1, cells are counted, then centrifuged in a conical tube for 5 minutes at 1000 rpm. The supernatant is removed and cells are re-suspended as follows: • BCR-FMS/BaF3 and BCR-KIT/BaF3: resuspend in growth media+1 mg/mL G418 (without WEHI/IL-3) to 2×10^5 cells/mL. • M-NFS-60: resuspend in growth media +62 ng/mL murine M-CSF to 5×10^5 cells/mL. • M-07e: resuspend in growth media +200 ng/mL human SCF to 5×10^5 cells/mL. • BAC1.2F5: resuspend in growth media +36 ng/mL murine M-CSF to 1.4×10^5 cells/mL. • MV-4-11: resuspend in growth media +10% FBS to 5×10^5 cells/mL. The cells are plated (50 μL) in each well of a 96-well dish (Corning 3610) and incubated at 37° C. in 5% CO2 overnight, cells plated to a final concentration of cells as follows: • BCR-FMS/BaF3 and BCR-KIT/BaF3: 10,000 cells per well. • M-NFS-60: 25,000 cells per well. • M-07e: 25,000 cells per well. • BAC1.2F5: 7,000 cells per well. • MV-4-11: 25,000 cells per well. On day 2, compound at a maximum concentration of 5 mM is serially diluted 1:3 for a total of 8 point titration with DMSO as a control. A 1 μL aliquot of each dilution point is added to 249 μL growth media and 50 μL is added to a well containing cells, providing 10 μM compound for the maximum concentration point. The cells are incubated for 3 days at 37° C. in 5% CO2. On day 5, ATPlite 1 step Luminescence Assay System (Perkin Elmer #6016739) is brought to room temperature along with the cell cultures. ATPlite is added to each well as follows: • BCR-FMS/BaF3 and BCR-KIT/BaF3: 25 μL per well. • M-NFS-60: 25 μL per well. • M-07c: 40 μL per well. • BAC1.2F5: 50 μL per well. • MV-4-11: 40 μL per well. The cells are incubated at room temperature for 10 minutes, then luminescence is read on Safire reader. The measured luminescence correlates directly with cell number, such that the reading as a function of compound concentration is used to determine the IC50 value.

[1] abbreviates: BCR-FMS/BaF3 cells; read-out: BCR/BaF3 (IC50 μM) Fms.
[2] abbreviates: Kit IC50/Fms IC50, BCR-KIT/BaF3 vs BCR-FMS/BaF3 cells.
The mark [3] stands for this setting: read-out: BCR/BaF3 (IC50 μM) Fms; BCR-FMS/BaF3 cells.
The mark [4] stands for this setting: BCR-FMS/BaF3 cells, 3 days; read-out: Cell based (IC50 μM) BCR/BaF3 (Fms).
Where [5] appears, read: read-out: Cell based (IC50 μM) BCR/BaF3 (Fms); BCR-FMS/BaF3 cells, 3 days.

Like-named read-outs stand apart in the source and are kept apart here. Bounds are passed on as bounds.

BCR-FMS/BaF3 cells, sequence (P07333 20-972 limits assumed, change not shown): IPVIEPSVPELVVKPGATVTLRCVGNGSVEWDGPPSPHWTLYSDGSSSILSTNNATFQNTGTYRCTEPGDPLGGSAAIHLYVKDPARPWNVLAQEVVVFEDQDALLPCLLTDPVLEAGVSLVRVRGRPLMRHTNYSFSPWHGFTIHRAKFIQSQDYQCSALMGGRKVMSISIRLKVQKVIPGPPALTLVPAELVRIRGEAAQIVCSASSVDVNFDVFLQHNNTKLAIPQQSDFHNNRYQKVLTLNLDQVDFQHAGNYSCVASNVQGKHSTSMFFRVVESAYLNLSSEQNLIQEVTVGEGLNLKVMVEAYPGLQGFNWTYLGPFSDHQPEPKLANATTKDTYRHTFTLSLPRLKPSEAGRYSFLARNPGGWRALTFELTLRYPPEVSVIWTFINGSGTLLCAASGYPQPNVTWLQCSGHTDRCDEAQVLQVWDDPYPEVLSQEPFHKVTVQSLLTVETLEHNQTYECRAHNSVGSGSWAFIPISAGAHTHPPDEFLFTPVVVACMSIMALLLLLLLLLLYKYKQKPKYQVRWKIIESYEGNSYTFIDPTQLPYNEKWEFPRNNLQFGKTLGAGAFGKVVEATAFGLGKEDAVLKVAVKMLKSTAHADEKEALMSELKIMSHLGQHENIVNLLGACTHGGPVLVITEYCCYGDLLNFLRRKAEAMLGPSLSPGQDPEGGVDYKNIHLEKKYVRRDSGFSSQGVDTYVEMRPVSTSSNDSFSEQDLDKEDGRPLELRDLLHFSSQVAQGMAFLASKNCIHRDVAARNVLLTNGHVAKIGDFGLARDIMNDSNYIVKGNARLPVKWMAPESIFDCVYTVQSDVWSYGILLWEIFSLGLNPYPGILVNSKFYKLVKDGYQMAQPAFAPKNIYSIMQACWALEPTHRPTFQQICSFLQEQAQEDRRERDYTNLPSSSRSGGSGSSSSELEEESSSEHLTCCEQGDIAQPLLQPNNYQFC
BCR-KIT/BaF3 cells, sequence (P10721 26-976 limits assumed, change not shown): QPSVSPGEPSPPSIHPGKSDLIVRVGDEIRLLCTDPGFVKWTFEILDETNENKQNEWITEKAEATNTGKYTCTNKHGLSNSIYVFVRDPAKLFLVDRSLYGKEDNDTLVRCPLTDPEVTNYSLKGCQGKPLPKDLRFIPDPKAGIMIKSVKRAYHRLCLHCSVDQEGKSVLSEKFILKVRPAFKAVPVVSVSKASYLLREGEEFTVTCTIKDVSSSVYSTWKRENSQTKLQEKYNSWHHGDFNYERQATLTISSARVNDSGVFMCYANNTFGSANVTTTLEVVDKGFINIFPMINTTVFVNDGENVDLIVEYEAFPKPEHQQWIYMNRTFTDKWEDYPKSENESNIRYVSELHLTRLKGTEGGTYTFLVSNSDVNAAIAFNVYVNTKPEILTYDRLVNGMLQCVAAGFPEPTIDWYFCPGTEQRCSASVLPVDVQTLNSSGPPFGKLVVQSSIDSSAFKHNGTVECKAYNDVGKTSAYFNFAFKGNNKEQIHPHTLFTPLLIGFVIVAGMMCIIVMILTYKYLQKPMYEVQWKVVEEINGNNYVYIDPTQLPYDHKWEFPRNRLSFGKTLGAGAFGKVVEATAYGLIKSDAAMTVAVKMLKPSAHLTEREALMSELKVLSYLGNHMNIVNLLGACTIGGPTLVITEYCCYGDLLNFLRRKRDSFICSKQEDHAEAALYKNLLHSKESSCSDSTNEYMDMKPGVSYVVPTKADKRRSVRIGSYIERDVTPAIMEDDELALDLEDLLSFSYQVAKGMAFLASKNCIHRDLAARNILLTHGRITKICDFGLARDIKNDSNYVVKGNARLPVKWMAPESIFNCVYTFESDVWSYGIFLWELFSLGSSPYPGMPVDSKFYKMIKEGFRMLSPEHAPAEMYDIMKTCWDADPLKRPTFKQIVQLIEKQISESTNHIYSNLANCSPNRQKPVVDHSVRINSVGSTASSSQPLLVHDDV

Regarding `COc1ccc(CNc2ncc(Cc3c[nH]c4ncc(C)cc34)cc2C)cn1` [Compound P-1554, (6-Methoxy-pyridin-3-ylmethyl)-[3-methyl-5-(5-methyl-1H-pyrrolo[2,3-b]pyridin-3-ylmethyl)-pyridin-2-yl]-amine], the results for the IC50 at BCR-FMS/BaF3 cells (setting [1]) and at BCR-KIT/BaF3 cells were less than 0.1 µM and more than 0.1 µM, respectively. Besides, the “BCR/BaF3 selectivity (Kit IC50/Fms IC50)” value on BCR-FMS/BaF3 cells (setting [2]) is given as less than 20.

With `COc1ccc(CNc2ncc(Cc3c[nH]c4ncc(C)cc34)cc2F)cn1` [Compound P-1562, [3-Fluoro-5-(5-methyl-1H-pyrrolo[2,3-b]pyridin-3-ylmethyl)-pyridin-2-yl]-(6-methoxy-pyridin-3-ylmethyl)-amine], at BCR-FMS/BaF3 cells (setting [2]), the “BCR/BaF3 selectivity (Kit IC50/Fms IC50)” value is listed as less than 20. For the same molecule, the IC50 was less than 0.1 µM on BCR-FMS/BaF3 cells (setting [3]) and more than 0.1 µM on BCR-KIT/BaF3 cells.

With `COc1ccc(CNc2ccc(Cc3c[nH]c4ncc(F)cc34)c(F)n2)cn1` [Compound P-1622, [6-Fluoro-5-(5-fluoro-1H-pyrrolo[2,3-b]pyridin-3-ylmethyl)-pyridin-2-yl]-(6-methoxy-pyridin-3-ylmethyl)-amine], the “BCR/BaF3 selectivity (Kit IC50/Fms IC50)” value on BCR-FMS/BaF3 cells (setting [2]) is on record as more than 20. Besides, the IC50 was less than 0.1 µM at BCR-FMS/BaF3 cells (setting [3]) and more than 0.1 µM at BCR-KIT/BaF3 cells.

Take `COc1ncc(F)cc1CNc1ccc(Cc2c[nH]c3ncc(NC(C)=O)cc23)c(F)n1` [Compound P-1669, N-(3-{2-fluoro-6-[(5-fluoro-2-methoxy-pyridin-3-ylmethyl)-amino]-pyridin-3-ylmethyl}-1H-pyrrolo[2,3-b]pyridin-5-yl)-acetamide]: the “BCR/BaF3 selectivity (Kit IC50/Fms IC50)” value on BCR-FMS/BaF3 cells (setting [2]) is more than 20. The IC50 at BCR-FMS/BaF3 cells (setting [3]) was less than 0.1 µM; on BCR-KIT/BaF3 cells, more than 0.1 µM.

Regarding `CS(=O)(=O)Nc1cnc2[nH]cc(Cc3ccc(NCc4ccc(Cl)nc4)nc3F)c2c1` [Compound P-1679, N-(3-{6-[(6-Chloro-pyridin-3-ylmethyl)-amino]-2-fluoro-pyridin-3-ylmethyl}-1H-pyrrolo[2,3-b]pyridin-5-yl)-methanesulfonamide], the “BCR/BaF3 selectivity (Kit IC50/Fms IC50)” value on BCR-FMS/BaF3 cells (setting [2]) is reported as more than 20. Moreover, the IC50 on BCR-FMS/BaF3 cells (setting [3]) is less than 0.1 µM; on BCR-KIT/BaF3 cells, more than 0.1 µM.

Regarding `Fc1cncc(CNc2ccc(Cc3c[nH]c4ncc(Cl)cc34)c(F)n2)c1` [Compound P-2001, [5-(5-Chloro-1H-pyrrolo[2,3-b]pyridin-3-ylmethyl)-6-fluoro-pyridin-2-yl]-(5-fluoro-pyridin-3-ylmethyl)-amine], the “BCR/BaF3 selectivity (Kit IC50/Fms IC50)” value on BCR-FMS/BaF3 cells (setting [2]) is more than 20. The figures for the IC50 on BCR-FMS/BaF3 cells (setting [3]) and on BCR-KIT/BaF3 cells were less than 0.1 µM and more than 0.1 µM, respectively.

Regarding `Clc1cnc2[nH]cc(Cc3ccc(NCc4ccc(Cl)nc4)nc3)c2c1` [Compound P-2003], the IC50 on BCR-FMS/BaF3 cells (setting [4]), on BCR-FMS/BaF3 cells (setting [1]) and at BCR-KIT/BaF3 cells was less than 0.1 µM throughout. For the same molecule, the “BCR/BaF3 selectivity (Kit IC50/Fms IC50)” value at BCR-FMS/BaF3 cells (setting [2]) is less than 20.

As to `Fc1ccc(CNc2ccc(Cc3c[nH]c4ncc(Cl)cc34)cn2)cn1` [Compound P-2004, [5-(5-chloro-1H-pyrrolo[2,3-b]pyridin-3-ylmethyl)-pyridin-2-yl]-(6-fluoro-pyridin-3-ylmethyl)-amine], the “BCR/BaF3 selectivity (Kit IC50/Fms IC50)” value at BCR-FMS/BaF3 cells (setting [2]) is less than 20. For the same molecule, the IC50 on BCR-FMS/BaF3 cells (setting [3]), on BCR-FMS/BaF3 cells (setting [5]) and at BCR-KIT/BaF3 cells was less than 0.1 µM throughout.

Consider `Fc1ccc(CNc2ncc(Cc3c[nH]c4ncc(Cl)cc34)cn2)cc1F` [Compound P-2008, [5-(5-Chloro-1H-pyrrolo[2,3-b]pyridin-3-ylmethyl)-pyrimidin-2-yl]-(3,4-difluoro-benzyl)-amine], for which the IC50 at BCR-FMS/BaF3 cells (setting [1]) was less than 0.1 µM; at BCR-KIT/BaF3 cells, more than 0.1 µM. For the same molecule, the “BCR/BaF3 selectivity (Kit IC50/Fms IC50)” value at BCR-FMS/BaF3 cells (setting [2]) is less than 20.

In the case of `Cc1cccc(CNc2ncc(Cc3c[nH]c4ncc(Cl)cc34)cn2)c1` [Compound P-2013, [5-(5-Chloro-1H-pyrrolo[2,3-b]pyridin-3-ylmethyl)-pyrimidin-2-yl]-(3-methyl-benzyl)-amine], the IC50 at BCR-FMS/BaF3 cells (setting [1]) was less than 0.1 µM; at BCR-KIT/BaF3 cells it was more than 0.1 µM. The “BCR/BaF3 selectivity (Kit IC50/Fms IC50)” value at BCR-FMS/BaF3 cells (setting [2]) is on record as less than 20.

As for `Cc1cnc2[nH]cc(Cc3ccc(NCc4ccc(C(F)(F)F)nc4)nc3)c2c1` [Compound P-2019, [5-(5-Methyl-1H-pyrrolo[2,3-b]pyridin-3-ylmethyl)-pyridin-2-yl]-(6-trifluoromethyl-pyridin-3-ylmethyl)-amine], at BCR-FMS/BaF3 cells (setting [2]), the “BCR/BaF3 selectivity (Kit IC50/Fms IC50)” value is less than 20. Also, the IC50 at BCR-FMS/BaF3 cells (setting [3]), on BCR-FMS/BaF3 cells (setting [5]) and on BCR-KIT/BaF3 cells was less than 0.1 µM each time.

Turning to `COc1cnc2[nH]cc(Cc3ccc(NCc4cncc(F)c4)nc3F)c2c1` [Compound P-2028, [6-Fluoro-5-(5-methoxy-1H-pyrrolo[2,3-b]pyridin-3-ylmethyl)-pyridin-2-yl]-(5-fluoro-pyridin-3-ylmethyl)-amine], the “BCR/BaF3 selectivity (Kit IC50/Fms IC50)” value on BCR-FMS/BaF3 cells (setting [2]) was more than 20. The IC50 at BCR-FMS/BaF3 cells (setting [3]) is less than 0.1 µM; on BCR-KIT/BaF3 cells it was more than 0.1 µM.

As to `COc1cnc2[nH]cc(Cc3ccc(NCc4ccccc4Cl)nc3F)c2c1` [Compound P-2034, (2-chloro-benzyl)-[6-fluoro-5-(5-methoxy-1H-pyrrolo[2,3-b]pyridin-3-ylmethyl)-pyridin-2-yl]-amine], the IC50 at BCR-FMS/BaF3 cells (setting [4]) was less than 0.1 µM.

On to `Fc1nc(NCc2ccc(Cl)cn2)ccc1Cc1c[nH]c2ncccc12` [Compound P-2044, (5-Chloro-pyridin-2-ylmethyl)-[6-fluoro-5-(1H-pyrrolo[2,3-b]pyridin-3-ylmethyl)-pyridin-2-yl]-amine], for which the IC50 at BCR-FMS/BaF3 cells (setting [5]) is less than 0.1 µM.
